In patent publication US20150283137A1, “6-oxo-1,6-dihydro-pyridazine derivative for the use for the treatment of hepatocellular carcinoma (HCC)” (MERCK PATENT GMBH, priority 2012, published 2015):
Entries after “also recorded” stand apart in the source; their conditions may differ.

Experiments:
[1] = system: MHCC97H tumor fragments; assay: Orthotopic MHCC97H tumor model; conditions: 100 mg/kg orally
Procedure: Method: In male BalB/c nude mice (7-8 week old) MHCC97H tumor fragments (2-3 mm^3) where orthotopically implanted into the left lobe of the liver. After 1 week of intrahepatic implantation animals were divided into treatment groups (ten animals in one group). Respective groups were administered orally with 3-(1-{3-[5-(1-methyl-piperidin-4-ylmethoxy)-pyrimidin-2-yl]-benzyl}-6-oxo-1,6-dihydro-pyridazin-3-yl)-benzonitrile hydrochloride hydrate at 100 mg/kg/5 days on and 2 days off for 5 weeks. At the end of treatment, tumor size and tumor weight were measured, plasma AFP levels and lung metastases analyzed.

[2] = system: human MHCC97H liver tumor cells; assay: Subcutaneous MHCC97H tumor model; assay type: in vivo, mice; conditions: for T/C ratio: 5 days on and 2 days on; for anti-tumor activity (in words): established fast growing subcutaneous MHCC97H tumors
Procedure: Method: Male BalB/c nude mice (6-8 week old) where subcutaneously injected with human MHCC97H liver tumor cells and were divided into treatment groups (ten animals in one group) after the tumors were established (ca. 500 mm^3). Respective groups were administered orally with the 3-(1-{3-[5-(1-methyl-piperidin-4-ylmethoxy)-pyrimidin-2-yl]-benzyl}-6-oxo-1,6-dihydro-pyridazin-3-yl)-benzonitrile hydrochloride hydrate at different doses (10, 30 and 100 mg/kg) for 5 days on and […] or daily with sorafenib (50 mg/kg).

[3] = system: human primary HCC explants
Procedure: Method: Male BalB/c nude mice (6-8 week old) where subcutaneously transplanted with a primary HCC tumor fragment. Animals were divided into treatment groups (12 animals in one group) after the tumors were established. Respective groups were administered orally with the 3-(1-{3-[5-(1-methyl-piperidin-4-ylmethoxy)-pyrimidin-2-yl]-benzyl}-6-oxo-1,6-dihydro-pyridazin-3-yl)-benzonitrile hydrochloride hydrate at 100 mg/kg for 5 out of 7 days.

SMILES	tolerability ([1]; 5 days on and 2 days off for 5 weeks)	anti-tumor activity on primary tumor (in words) ([1]; 5 days on and 2 days off for 5 weeks, end of treatment at day 35, hydrochloride hydrate)	lung metastases ([1]; end of treatment)	AFP levels in plasma ([1]; end of treatment, hydrochloride hydrate)	body weight ([1]; followed throughout the study)	tumor growth delay (TGD, time to reach a tumor volume of 1000 mm^3) ([2]; 10 mg/kg orally)	T/C ratio ([2]; 10 mg/kg orally, end of treatment, tumors ca. 500 mm^3 at start)	tumor growth delay (TGD, time to reach a tumor volume of 1000 mm^3) ([2]; 30 mg/kg orally)	T/C ratio ([2]; 30 mg/kg orally, end of treatment)	tumor growth delay (TGD, time to reach a tumor volume of 1000 mm^3) ([2]; 100 mg/kg orally)	T/C ratio ([2]; 100 mg/kg orally, end of treatment)	anti-tumor activity (in words) [2]	tolerability (body weight) ([3]; all mice)	anti-tumor activity compared with sorafenib monotherapy ([3]; models LIM801 and LIM612 (strong signs of c-Met signaling))	further activity in primary explants (in words) ([3]; nine primary explants, besides CR and SD)	complete responses (CR) ([3]; nine subcutaneous established primary explants, 100 mg/kg 5 out of 7 days)	number of models with significantly inhibited growth ([3]; out of 9 models, 100 mg/kg/5 out of 7 days)	T/C value ([2]; sorafenib 50 mg/kg orally daily, end of treatment)	number of models with anti-tumor activity ([3]; out of 9 models, sorafenib 50 mg/kg/5 out of 7 days)
CN1CCC(COc2cnc(-c3cccc(Cn4nc(-c5cccc(C#N)c5)ccc4=O)c3)nc2)CC1.Cl.O [3-(1-{3-[5-(1-methyl-piperidin-4-ylmethoxy)-pyrimidin-2-yl]-benzyl}-6-oxo-1,6-dihydro-pyridazin-3-yl)-benzonitrile hydrochloride hydrate]	well tolerated	complete regression in all mice; also recorded: primary tumor regression (p<0.001)	reduction lung metastases (p<0.01)	no AFP was measurable; also recorded: significantly reduced (p<0.001)	no body weight loss could be detected	24 days	−57%	53 days	−93%	> 53 days	−93%	completely inhibited growth and induced regressions	well tolerated in all mice	better anti-tumor activity than sorafenib monotherapy	marginal activity in one additional model	1/9	4	–	–
CNC(=O)c1cc(Oc2ccc(NC(=O)Nc3ccc(Cl)c(C(F)(F)F)c3)cc2)ccn1 [sorafenib, reference compound]	–	–	–	–	–	–	–	–	–	–	–	marginal anti tumor activity with no tumor regressions	–	–	–	–	–	27%	7
